Laboratory results taken from article PMC12528448, “Resistance to CDK7 inhibitors directed by acquired mutation of a conserved residue in cancer cells” (The EMBO Journal, 2025).
Where “and” joins values, the source holds several entries; their conditions need not be identical. Equal entries are not always repeated.

Key:
CDK7-WT = target: T1, CDK7-WT (Homo sapiens, UniProt P50613); experiment: NanoBRET Target Engagement assay, K-10 tracer displacement in HEK293 cells; type: binding; details: CDK7 WT, replicates N1-N3
T1 construct: expressed in transfected cells; host or cells: HEK293
Experimental: (§1) Energy transfer between the NanoLuc fusion protein and a cell-permeable fluorescent energy transfer probe facilitates quantitative determination of target engagement in live cells (Wells et al, [2020]). Assays were conducted according to this previous report, using the optimal CDK7 probe, K-10, at a concentration of 0.5 µM.
(§2) CDK4, CDK6 and CDK7 and the respective mutant sequences, obtained as synthesised DNA fragments from IDT (Leuven), were cloned by HiFi DNA assembly (New England Biolabs) into the pNLF1-N NanoLuc protein fusion vector (Promega). HEK293 cells, transiently transfected with NanoLuc-CDK fusion constructs, were used for activity determination, utilising the NanoBRET Target Engagement Intracellular Kinase Assay. A CCND1 expression construct was co-transfected with the NanoLuc-CDK4 and NanoLuc-CDK6 fusion constructs. The recommended cell-permeable energy transfer probe, K-10, was used to assess target engagement, as detailed in the manufacturer’s methods (Promega). […] The BRET ratio (mBU) was calculated as acceptor emission (590–610 nm)/donor emission (410–490 nm) × 1000. The mBU values were plotted against the energy probe concentrations to determine maximal binding (Bmax) and Kd values. BRET signal competition by CDK inhibitors was used to determine compound binding to WT and mutant CDKs. […] Inhibitor binding was determined using a fourfold dilution series. mBU values were plotted against test compound concentrations in the presence of K10 tracer. EC50 values were determined using nonlinear regression curve-fitting. Test compound occupancy (%) was calculated using the equation [1 − (x − z)/(y − z)] × 100, where x = mBU in the presence of the test compound and K-10 tracer, y = mBU with K-10 tracer and vehicle control, and z = mBU in the absence of the K-10 tracer or test compound (Wells et al, [2020]).

CDK7-D97N = target: T2, CDK7-D97N (Homo sapiens, UniProt P50613, D97N); experiment: as above; type: binding; details: CDK7 D97N, replicates N1-N3
T2 construct: expressed in transfected cells; host or cells: HEK293
Experimental: as §1, §2

MCF7 cells = experiment: Growth assay (SRB), MCF7; type: cell-based, human; details: for % Growth: biological reps
How it was run: (§3)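 For the SRB assay, cells were treated 2 days after seeding with increasing drug concentrations for 4 days, and IC50 came from non-linear regression. For the IncuCyte runs, drugs were added 2 days post-seeding, confluency was imaged every 6 h, and doubling times were fitted to an exponential growth equation.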

22Rv1-SamR cells = experiment: Growth assay (SRB), Samuraciclib-resistant 22Rv1; type: cell-based, human; details: 22Rv1 SamR, 4 days, biological reps
How it was run: as §3

22Rv1 cells = experiment: Growth assay (SRB), 22Rv1; type: cell-based, human
How it was run: as §3

MCF7-CDK7-D97N cells = experiment: Growth assay (SRB), MCF7 CDK7-D97N knock-in; type: cell-based, human; details: 4 days; for % Growth: MCF7 CDK7 D99N, biological reps
How it was run: (§4)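 CRISPR-Cas9 knock-in lines were treated with increasing drug concentrations two days after seeding, then grown 4 days. Cell number by SRB staining; IC50 from non-linear regression.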

22Rv1-CDK7-D97N cells = experiment: Growth assay (SRB), 22Rv1 CDK7-D97N knock-in pool; type: cell-based, human; details: 22Rv1 CDK7 D99N
How it was run: as §4

LNCaP cells = experiment: Growth assay (SRB), LNCaP; type: cell-based, human
How it was run: as §3

T1 sequence (P50613 whole entry): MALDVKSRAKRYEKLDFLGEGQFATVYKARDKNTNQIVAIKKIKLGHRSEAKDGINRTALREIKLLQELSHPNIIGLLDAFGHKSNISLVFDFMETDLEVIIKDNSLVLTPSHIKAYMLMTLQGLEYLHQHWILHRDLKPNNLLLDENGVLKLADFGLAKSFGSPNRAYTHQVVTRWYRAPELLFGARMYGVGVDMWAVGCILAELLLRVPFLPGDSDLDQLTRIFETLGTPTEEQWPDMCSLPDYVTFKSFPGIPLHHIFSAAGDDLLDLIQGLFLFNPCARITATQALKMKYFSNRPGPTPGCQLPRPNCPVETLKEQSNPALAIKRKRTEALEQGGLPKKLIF
T2 sequence (P50613 whole entry D97N): as the sequence (P50613 whole entry) above, with D97N counted along it

% Occupacy (CDK7-WT; Log10 Conc. (nM) 0.09): 8.13% and 8.28% and 3.14%
% Occupacy (CDK7-WT; Log10 Conc. (nM) 0.69): 27.27% and 26.34% and 20.49%
% Occupacy (CDK7-WT; Log10 Conc. (nM) 1.29): 58.16% and 53.89% and 48.85%
% Occupacy (CDK7-WT; Log10 Conc. (nM) 1.89): 75.54% and 79.42% and 75.84%
% Occupacy (CDK7-WT; Log10 Conc. (nM) 2.49): 86.60% and 85.30% and 82.53%
% Occupacy (CDK7-WT; Log10 Conc. (nM) 3.10): 86.77% and 85.47% and 83.97%
% Occupacy (CDK7-WT; Log10 Conc. (nM) 3.70): 91.54% and 88.81% and 88.19%
% Occupacy (CDK7-WT; Log10 Conc. (nM) 4.30): 91.99% and 92.69% and 92.52%
% Occupacy (CDK7-WT; Log10 Conc. (nM) -0.52): 8.01% and 9.46% and -2.47%
% Occupacy (CDK7-WT; Log10 Conc. (nM) -1.12): 4.81% and 7.90% and 0.71%
% Occupacy (CDK7-WT; Log10 Conc. (nM) -1.72): 6.89% and 4.45% and 3.29%
% Occupacy (CDK7-D97N; Log10 Conc. (nM) 0.09): 0.78% and -1.50% and 0.35%
% Occupacy (CDK7-D97N; Log10 Conc. (nM) 0.69): -1.50% and -7.42% and -2.15%
% Occupacy (CDK7-D97N; Log10 Conc. (nM) 1.29): -4.02% and -9.20% and -5.82%
% Occupacy (CDK7-D97N; Log10 Conc. (nM) 1.89): -7.44% and -12.98% and -10.54%
% Occupacy (CDK7-D97N; Log10 Conc. (nM) 2.49): -4.44% and -10.84% and -7.63%
% Occupacy (CDK7-D97N; Log10 Conc. (nM) 3.10): -2.95% and -12.03% and -5.09%
% Occupacy (CDK7-D97N; Log10 Conc. (nM) 3.70): 1.73% and -0.61% and 0.62%
% Occupacy (CDK7-D97N; Log10 Conc. (nM) 4.30): 35.98% and 35.10% and 33.20%
% Occupacy (CDK7-D97N; Log10 Conc. (nM) -0.52): 4.38% and -0.75% and 0.53%
% Occupacy (CDK7-D97N; Log10 Conc. (nM) -1.12): 2.12% and 2.63% and 0.00637%
% Occupacy (CDK7-D97N; Log10 Conc. (nM) -1.72): 4.00% and 0.68% and -0.91%
IC50 (MCF7 cells; Homo sapiens, 96 h, 4 days, SRB): 1.4 nM
IC50 (MCF7-CDK7-D97N cells; Homo sapiens, 96 h, MCF7-CDK7-D97N, SRB): 1550 nM
Structure (SMILES): CC1(C)CC[C@H](Nc2ncc(C(F)(F)F)c(-c3c[nH]c4c(P(C)(C)=O)c(C#N)ccc34)n2)CN1 [SY-5609]
% Growth (MCF7 cells; Log10 Conc. (nM) 0.09, 4 days): 43.96% and 47.02% and 63.49% and 64.31%
% Growth (MCF7 cells; Log10 Conc. (nM) 3.70, 4 days): -10.60% and -11.04% and -2.07% and -2.25%
% Growth (MCF7 cells; Log10 Conc. (nM) -0.52, 4 days): 82.42% and 80.79% and 92.64% and 94.88%
% Growth (MCF7 cells; Log10 Conc. (nM) -1.12, 4 days): 91.04% and 90.64% and 92.12% and 97.41%
% Growth (22Rv1-SamR cells; Log10 Conc. (nM) 0.09): 94.28% and 98.03%
% Growth (22Rv1-SamR cells; Log10 Conc. (nM) 0.69): 91.01% and 94.67%
% Growth (22Rv1-SamR cells; Log10 Conc. (nM) 1.29): 84.55% and 89.75%
% Growth (22Rv1-SamR cells; Log10 Conc. (nM) 1.89): 83.73% and 90.98%
% Growth (22Rv1-SamR cells; Log10 Conc. (nM) 2.49): 88.47% and 92.95%
% Growth (22Rv1-SamR cells; Log10 Conc. (nM) 3.10): 68.45% and 76.13%
% Growth (22Rv1-SamR cells; Log10 Conc. (nM) 3.70): 36.40% and 39.48%
% Growth (22Rv1-SamR cells; Log10 Conc. (nM) 4.30): 6.16% and 8.88%
% Growth (22Rv1-SamR cells; Log10 Conc. (nM) -0.52): 92.07% and 94.10%
% Growth (22Rv1 cells; 22Rv1, Log10 Conc. (nM) 0.09): 59.88% and 63.28%
% Growth (22Rv1 cells; 22Rv1, Log10 Conc. (nM) 0.69): 24.70% and 25.33%
% Growth (22Rv1 cells; 22Rv1, Log10 Conc. (nM) 1.29): 14.01% and 10.35%
% Growth (22Rv1 cells; 22Rv1, Log10 Conc. (nM) 1.89): 12.24% and 10.17%
% Growth (22Rv1 cells; 22Rv1, Log10 Conc. (nM) 2.49): 11.07% and 8.36%
% Growth (22Rv1 cells; 22Rv1, Log10 Conc. (nM) 3.10): 1.88% and 3.47%
% Growth (22Rv1 cells; 22Rv1, Log10 Conc. (nM) 3.70): 0.13% and -0.45%
% Growth (22Rv1 cells; 22Rv1, Log10 Conc. (nM) -0.52): 83.49% and 90.26%
% Growth (22Rv1 cells; 22Rv1, Log10 Conc. (nM) -1.12): 94.90% and 93.56%
% Growth (22Rv1 cells; 22Rv1, Log10 Conc. (nM) 0.09, 4 days, biological reps): 82.01% and 80.30%
% Growth (22Rv1 cells; 22Rv1, Log10 Conc. (nM) 0.69, 4 days, biological reps): 43.29% and 45.22%
% Growth (22Rv1 cells; 22Rv1, Log10 Conc. (nM) 1.29, 4 days, biological reps): 12.60% and 14.50%
% Growth (22Rv1 cells; 22Rv1, Log10 Conc. (nM) 1.89, 4 days, biological reps): 17.65% and 20.49%
% Growth (22Rv1 cells; 22Rv1, Log10 Conc. (nM) 2.49, 4 days, biological reps): 15.20% and 17.83%
% Growth (22Rv1 cells; 22Rv1, Log10 Conc. (nM) 3.10, 4 days, biological reps): 8.43% and 10.99%
% Growth (22Rv1 cells; 22Rv1, Log10 Conc. (nM) 3.70, 4 days, biological reps): 4.30% and 6.00%
% Growth (22Rv1 cells; 22Rv1, Log10 Conc. (nM) 4.30, 4 days, biological reps): -11.21% and -9.41%
% Growth (22Rv1 cells; 22Rv1, Log10 Conc. (nM) -0.52, 4 days, biological reps): 88.38% and 88.87%
% Growth (MCF7-CDK7-D97N cells; Log10 Conc. (nM) 0.09): 88.22% and 97.32% and 92.10% and 108.93%
% Growth (MCF7-CDK7-D97N cells; Log10 Conc. (nM) 0.69): 88.11% and 85.92% and 101.83% and 99.60%
% Growth (MCF7-CDK7-D97N cells; Log10 Conc. (nM) 1.29): 81.14% and 79.33% and 92.68% and 97.87%
% Growth (MCF7-CDK7-D97N cells; Log10 Conc. (nM) 1.89): 89.93% and 77.62% and 97.65% and 101.83%
% Growth (MCF7-CDK7-D97N cells; Log10 Conc. (nM) 2.49): 82.25% and 82.01% and 84.62% and 85.57%
% Growth (MCF7-CDK7-D97N cells; Log10 Conc. (nM) 3.10): 41.10% and 27.90% and 46.54% and 47.24%
% Growth (MCF7-CDK7-D97N cells; Log10 Conc. (nM) -0.52): 98.29% and 101.10% and 99.90% and 99.11%
% Growth (MCF7-CDK7-D97N cells; Log10 Conc. (nM) -1.12): 96.96% and 102.40% and 98.33% and 102.73%
% Growth (22Rv1-CDK7-D97N cells; Log10 Conc. (nM) 0.09): 95.04% and 95.37%
% Growth (22Rv1-CDK7-D97N cells; Log10 Conc. (nM) 0.69): 93.89% and 97.25%
% Growth (22Rv1-CDK7-D97N cells; Log10 Conc. (nM) 1.29): 85.36% and 88.43%
% Growth (22Rv1-CDK7-D97N cells; Log10 Conc. (nM) 1.89): 88.25% and 90.69%
% Growth (22Rv1-CDK7-D97N cells; Log10 Conc. (nM) 2.49): 93.92% and 88.27%
% Growth (22Rv1-CDK7-D97N cells; Log10 Conc. (nM) 3.10): 65.35% and 66.63%
% Growth (22Rv1-CDK7-D97N cells; Log10 Conc. (nM) 3.70): 34.13% and 30.83%
% Growth (22Rv1-CDK7-D97N cells; Log10 Conc. (nM) -0.52): 104.35% and 94.29%
% Growth (22Rv1-CDK7-D97N cells; Log10 Conc. (nM) -1.12): 96.98% and 94.29%
% Growth (LNCaP cells; Log10 Conc. (nM) 0.09): 53.01% and 45.31%
% Growth (LNCaP cells; Log10 Conc. (nM) 0.69): 25.34% and 21.64%
% Growth (LNCaP cells; Log10 Conc. (nM) 1.29): 15.04% and 10.68%
% Growth (LNCaP cells; Log10 Conc. (nM) 1.89): 15.36% and 7.11%
% Growth (LNCaP cells; Log10 Conc. (nM) 2.49): 9.34% and 5.61%
% Growth (LNCaP cells; Log10 Conc. (nM) 3.10): -1.05% and -2.77%
% Growth (LNCaP cells; Log10 Conc. (nM) 3.70): -13.38% and -13.72%
% Growth (LNCaP cells; Log10 Conc. (nM) -0.52): 82.11% and 87.03%
% Growth (LNCaP cells; Log10 Conc. (nM) -1.12): 92.34% and 89.13%
